Assay results reported in patent US11814367B2, “Inhibitors of glycogen synthase 1 (GYS1) and methods of use thereof” (Maze Therapeutics, Inc., priority 2021, dated 2023).

Legend:
[1] = target: hGYS2 enzyme (recombinant hGYS2/GN1 protein) (Homo sapiens (Human), UniProt P54840); test: GYS2 coupled enzyme assay (PK/LDH); format: biochemical; details: geometric mean of at least 2 assay runs on separate days, read-out: Avg_IC50
Outline: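 IC50 came from Hill fits of duplicate percent inhibition, based on control-normalized slopes of 340 nm NADH decline read each minute for 10 min. The reaction held recombinant hGYS2/GN1 (200 nM) with glycogen, UDP-glucose, G6P and PEP, plus PK/LDH coupling at pH 7.5 and 2.5% DMSO.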

[2] = target: hGYS1 enzyme (recombinant hGYS1/GN1 protein) (Homo sapiens (Human), UniProt P13807); test: GYS1 coupled enzyme assay (PK/LDH); format: biochemical; details: hGYS1/GN1 50 nM, UDP-Glucose 0.8 mM, G6P 1 mM; geometric mean of at least 2 runs
[3] = tested on: hGYS1 enzyme / glycogen synthesis in HeLa cells; test: GYS1 cell based assay (glycogen synthesis, Glucose-glo); set-up: species or system human; details: Homo sapiens, HeLa, 24 h, 24 h incubation, 20 mM glucose, geometric mean of at least 2 runs
Outline: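 HeLa cells starved 24 h in medium containing only 1× Glutamax were plated onto compound in medium with 20 mM glucose (1% DMSO final) for 24 h, 37 °C, 5% CO2. Acid lysates were Tris-quenched, glucoamylase-digested (pH 5.3, 1 h, 37 °C) and read by Glucose-glo luminescence. IC50 came from Hill fits, as geometric mean of ≥2 runs.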

Chain of hGYS2 enzyme (recombinant hGYS2/GN1 protein) (P54840 whole entry): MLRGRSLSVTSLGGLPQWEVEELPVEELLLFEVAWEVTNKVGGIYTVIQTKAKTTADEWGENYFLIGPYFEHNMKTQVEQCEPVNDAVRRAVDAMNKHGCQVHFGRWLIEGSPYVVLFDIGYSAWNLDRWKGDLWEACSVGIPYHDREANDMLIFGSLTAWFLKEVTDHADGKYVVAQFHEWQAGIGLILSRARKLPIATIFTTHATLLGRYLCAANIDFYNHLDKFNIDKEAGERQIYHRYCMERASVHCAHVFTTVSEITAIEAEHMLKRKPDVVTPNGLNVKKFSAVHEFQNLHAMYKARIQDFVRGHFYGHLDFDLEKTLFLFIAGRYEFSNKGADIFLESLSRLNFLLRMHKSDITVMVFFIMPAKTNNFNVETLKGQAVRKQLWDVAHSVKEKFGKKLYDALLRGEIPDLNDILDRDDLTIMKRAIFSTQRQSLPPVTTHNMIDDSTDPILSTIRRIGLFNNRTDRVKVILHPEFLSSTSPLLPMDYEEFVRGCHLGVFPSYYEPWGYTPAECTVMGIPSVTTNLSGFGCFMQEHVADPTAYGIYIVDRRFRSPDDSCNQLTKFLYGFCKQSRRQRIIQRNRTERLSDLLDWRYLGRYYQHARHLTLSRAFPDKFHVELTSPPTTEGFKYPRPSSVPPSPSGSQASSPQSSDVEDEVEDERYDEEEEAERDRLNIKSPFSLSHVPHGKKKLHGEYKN
Chain of hGYS2 enzyme (recombinant hGYS2/GN1 protein) (P46976 whole entry partner): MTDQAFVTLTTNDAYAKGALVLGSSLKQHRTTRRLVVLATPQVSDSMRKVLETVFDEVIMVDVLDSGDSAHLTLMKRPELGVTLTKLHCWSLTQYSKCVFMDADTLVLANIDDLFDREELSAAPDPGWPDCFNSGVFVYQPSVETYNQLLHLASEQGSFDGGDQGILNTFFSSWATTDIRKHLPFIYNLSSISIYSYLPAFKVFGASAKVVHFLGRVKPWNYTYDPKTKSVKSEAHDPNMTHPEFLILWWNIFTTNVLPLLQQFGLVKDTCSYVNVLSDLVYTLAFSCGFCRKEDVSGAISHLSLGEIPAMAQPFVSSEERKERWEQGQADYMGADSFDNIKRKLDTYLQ
Chain of hGYS1 enzyme (recombinant hGYS1/GN1 protein) (P13807 whole entry): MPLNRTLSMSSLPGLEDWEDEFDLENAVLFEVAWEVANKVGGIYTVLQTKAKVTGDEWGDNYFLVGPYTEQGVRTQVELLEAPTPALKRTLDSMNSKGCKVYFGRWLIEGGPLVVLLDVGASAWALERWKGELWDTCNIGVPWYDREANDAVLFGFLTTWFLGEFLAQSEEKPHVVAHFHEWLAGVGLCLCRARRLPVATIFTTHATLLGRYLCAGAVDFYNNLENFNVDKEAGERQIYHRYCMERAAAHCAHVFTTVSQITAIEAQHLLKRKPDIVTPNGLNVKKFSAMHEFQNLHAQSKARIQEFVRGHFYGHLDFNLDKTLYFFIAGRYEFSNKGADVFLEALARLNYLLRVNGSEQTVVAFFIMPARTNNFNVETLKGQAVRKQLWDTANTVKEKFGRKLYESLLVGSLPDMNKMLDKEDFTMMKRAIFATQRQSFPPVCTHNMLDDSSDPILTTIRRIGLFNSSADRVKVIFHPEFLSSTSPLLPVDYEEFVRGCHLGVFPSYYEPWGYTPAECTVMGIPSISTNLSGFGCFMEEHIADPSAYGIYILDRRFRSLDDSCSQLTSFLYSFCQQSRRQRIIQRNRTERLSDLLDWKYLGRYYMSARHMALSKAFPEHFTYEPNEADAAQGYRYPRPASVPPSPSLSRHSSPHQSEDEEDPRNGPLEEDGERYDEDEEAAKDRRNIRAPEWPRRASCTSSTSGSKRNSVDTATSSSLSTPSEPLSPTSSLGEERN
Chain of hGYS1 enzyme (recombinant hGYS1/GN1 protein) (P46976 whole entry partner): as the sequence (P46976 whole entry partner) above

Row | Compound | IC50 [1] | IC50 [2] | IC50 [3]
1 | CC(C)c1ccc([C@@H](NC(=O)[C@@H]2C[C@@H](F)CN2C(=O)Cn2ncc(N3CC(F)(F)C3)n2)c2ccccc2)nc1F [Compound 413, (2S,4R)-1-{2-[4-(3,3-difluoroazetidin-1-yl)-2H-1,2,3-triazol-2-yl]acetyl}-4-fluoro-N-[(S)-[6-fluoro-5-(propan-2-yl)pyridin-2-yl](phenyl)methyl] pyrrolidine-2-carboxamide] | > 100000 nM | 6 nM | 160 nM
2 | CCN(CC)c1cnn(CC(=O)N2C[C@H](F)C[C@H]2C(=O)N[C@@H](c2ccccc2)c2ccc(C(C)C)c(F)n2)n1 [Compound 414] | 78700 nM | 3 nM | 60 nM
3 | CC(C)c1ccc([C@@H](NC(=O)[C@@H]2[C@H]3C[C@H]3CN2C(=O)Cc2cnn[nH]2)c2ccccc2)nc1F [Compound 415, (1S,2S,5R)-N-[(S)-[6-fluoro-5-(propan-2-yl)pyridin-2-yl](phenyl)methyl]-3-[2-(1H-1,2,3-triazol-5-yl)acetyl]-3-azabicyclo[3.1.0] hexane-2-carboxamide] | > 100000 nM | 48 nM | 710 nM
4 | CC(C)c1ccc([C@@H](NC(=O)[C@@H]2CC[C@H](C)N2C(=O)Cc2cnn[nH]2)c2ccccc2)nc1F [Compound 416, (2S,5S)-N-[(S)-[6-fluoro-5-(propan-2-yl)pyridin-2-yl](phenyl)methyl]-5-methyl-1-[2-(1H-1,2,3-triazol-5-yl)acetyl]pyrrolidine-2-carboxamide] | > 100000 nM | 25 nM | 470 nM
5 | O=C(N[C@@H](c1ccccc1)c1ccc(C2CC2)c(F)c1)[C@@H]1C[C@@H](F)CN1C(=O)Cc1nnc(C(F)F)o1 [Compound 427, (2S,4R)-N-[(S)-(4-cyclopropyl-3-fluorophenyl)(phenyl)methyl]-1-{2-[5-(difluoromethyl)-1,3,4-oxadiazol-2-yl]acetyl}-4-fluoropyrrolidine-2-carboxamide] | > 100000 nM | 165 nM | 1960 nM
6 | CN1CCN(C(=O)OCC(=O)N2C[C@H](F)C[C@H]2C(=O)N[C@@H](c2ccccc2)c2ccc(C3CC3)c(F)c2)CC1 [Compound 445, 2-[(2S,4R)-2-{[(S)-(4-cyclopropyl-3-fluorophenyl)(phenyl)methyl]carbamoyl}-4-fluoropyrrolidin-1-yl]-2-oxoethyl 4-methylpiperazine-1-carboxylate] | > 100000 nM | 75 nM | 1660 nM
7 | O=C(N[C@@H](c1ccccc1)c1ccc(C2CC2)c(F)c1)[C@@H]1C[C@@H](F)CN1C(=O)COC(=O)N1CCN(CC(F)(F)F)CC1 [Compound 446, 2-[(2S,4R)-2-{[(S)-(4-cyclopropyl-3-fluorophenyl)(phenyl)methyl]carbamoyl}-4-fluoropyrrolidin-1-yl]-2-oxoethyl 4-(2,2,2-trifluoroethyl)piperazine-1-carboxylate] | > 100000 nM | 98 nM | 2190 nM
8 | O=C(N[C@@H](c1ccccc1)c1ccc(C2CC2)c(F)c1)[C@@H]1C[C@@H](F)CN1C(=O)COC(=O)N1CCN(CC2CC2)CC1 [Compound 447, 2-[(2S,4R)-2-{[(S)-(4-cyclopropyl-3-fluorophenyl)(phenyl)methyl]carbamoyl}-4-fluoropyrrolidin-1-yl]-2-oxoethyl 4-(cyclopropylmethyl) piperazine-1-carboxylate] | > 100000 nM | 96 nM | 5320 nM
9 | COCCN1CCN(C(=O)OCC(=O)N2C[C@H](F)C[C@H]2C(=O)N[C@@H](c2ccccc2)c2ccc(C3CC3)c(F)c2)CC1 [Compound 448, 2-[(2S,4R)-2-{[(S)-(4-cyclopropyl-3-fluorophenyl)(phenyl)methyl]carbamoyl}-4-fluoropyrrolidin-1-yl]-2-oxoethyl 4-(2-methoxyethyl)piperazine-1-carboxylate] | > 100000 nM | 71 nM | 1350 nM
10 | O=C(N[C@@H](c1ccccc1)c1ccc(C2CC2)c(F)c1)[C@@H]1C[C@@H](F)CN1C(=O)Cn1nnc2ccccc21 [Compound 450, (2S,4R)-1-[2-(1H-1,2,3-benzotriazol-1-yl)acetyl]-N-[(S)-(4-cyclopropyl-3-fluorophenyl)(phenyl)methyl]-4-fluoropyrrolidine-2-carboxamide] | > 100000 nM | 94 nM | 1730 nM
11 | O=C(N[C@@H](c1ccccc1)c1ccc(C2CC2)c(F)c1)[C@@H]1C[C@@H](F)CN1C(=O)COC(=O)N1CCC1 [Compound 451, 2-[(2S,4R)-2-{[(S)-(4-cyclopropyl-3-fluorophenyl)(phenyl)methyl]carbamoyl}-4-fluoropyrrolidin-1-yl]-2-oxoethyl azetidine-1-carboxylate] | > 100000 nM | 95 nM | 1570 nM
12 | O=C(N[C@@H](c1ccccc1)c1ccc(C2CC2)c(F)c1)[C@@H]1C[C@@H](F)CN1C(=O)CNC(=O)N1CCOCC1 [Compound 452, N-{2-[(2S,4R)-2-{[(S)-(4-cyclopropyl-3-fluorophenyl)(phenyl)methyl]carbamoyl}-4-fluoropyrrolidin-1-yl]-2-oxoethyl} morpholine-4-carboxamide] | > 100000 nM | 40 nM | 980 nM
13 | CN1C(=O)C(CC(=O)N2C[C@H](F)C[C@H]2C(=O)N[C@@H](c2ccccc2)c2ccc(C3CC3)c(F)c2)c2ccccc21 (stereo partly drawn) [Compound 455, (2S,4R)-N-[(S)-(4-cyclopropyl-3-fluorophenyl)(phenyl)methyl]-4-fluoro-1-[2-(1-methyl-2-oxo-2,3-dihydro-1H-indol-3-yl)acetyl]pyrrolidine-2-carboxamide] | > 100000 nM | 291 nM | 3620 nM

More lines, now with the values ahead:

Row | IC50 [1] | IC50 [2] | IC50 [3] | Compound
14 | > 100000 nM | 23 nM | 450 nM | O=C(N[C@@H](c1ccccc1)c1ccc(C2CC2)c(F)c1)[C@@H]1C[C@@H](F)CN1C(=O)Cn1cnc2ccccc21 [Compound 417, (2S,4R)-1-(2-(1H-benzo[d]imidazol-1-yl)acetyl)-N—((S)-(4-cyclopropyl-3-fluorophenyl)(phenyl)methyl)-4-fluoropyrrolidine-2-carboxamide]
15 | > 100000 nM | 224 nM | 3590 nM | CN1CCN(CC(=O)N2C[C@H](F)C[C@H]2C(=O)N[C@@H](c2ccccc2)c2ccc(C3CC3)c(F)c2)C1=O [Compound 425, (2S,4R)-N-[(S)-(4-cyclopropyl-3-fluorophenyl)(phenyl)methyl]-4-fluoro-1-[2-(3-methyl-2-oxoimidazolidin-1-yl)acetyl]pyrrolidine-2-carboxamide]
16 | > 100000 nM | 221 nM | 3350 nM | O=C(N[C@@H](c1ccccc1)c1ccc(C2CC2)c(F)c1)[C@@H]1C[C@@H](F)CN1C(=O)Cn1cnnn1 [Compound 431, (2S,4R)-N-[(S)-(4-cyclopropyl-3-fluorophenyl)(phenyl)methyl]-4-fluoro-1-[2-(1H-1,2,3,4-tetrazol-1-yl)acetyl]pyrrolidine-2-carboxamide]
17 | > 100000 nM | 91 nM | 1480 nM | Cc1nnn(CC(=O)N2C[C@H](F)C[C@H]2C(=O)N[C@@H](c2ccccc2)c2ccc(C3CC3)c(F)c2)n1 [Compound 433, (2S,4R)-N-[(S)-(4-cyclopropyl-3-fluorophenyl)(phenyl)methyl]-4-fluoro-1-[2-(5-methyl-2H-1,2,3,4-tetrazol-2-yl)acetyl]pyrrolidine-2-carboxamide]
18 | > 100000 nM | 23 nM | 860 nM | Cc1cn(CC(=O)N2C[C@H](F)C[C@H]2C(=O)N[C@@H](c2ccccc2)c2ccc(C3CC3)c(F)c2)c(=O)[nH]c1=O [Compound 442, (2S,4R)-N-[(S)-(4-cyclopropyl-3-fluorophenyl)(phenyl)methyl]-4-fluoro-1-[2-(5-methyl-2,4-dioxo-1,2,3,4-tetrahydropyrimidin-1-yl)acetyl]pyrrolidine-2-carboxamide]
19 | > 100000 nM | 39 nM | 700 nM | Cn1c(=O)ccn(CC(=O)N2C[C@H](F)C[C@H]2C(=O)N[C@@H](c2ccccc2)c2ccc(C3CC3)c(F)c2)c1=O [Compound 449, (2S,4R)-N-[(S)-(4-cyclopropyl-3-fluorophenyl)(phenyl)methyl]-4-fluoro-1-[2-(3-methyl-2,4-dioxo-1,2,3,4-tetrahydropyrimidin-1-yl)acetyl]pyrrolidine-2-carboxamide]
20 | > 100000 nM | 77 nM | 1840 nM | O=C(N[C@@H](c1ccccc1)c1ccc(C2CC2)c(F)c1)[C@@H]1C[C@@H](F)CN1C(=O)CN1Cc2ccccc2C1=O [Compound 453, (2S,4R)-N-[(S)-(4-cyclopropyl-3-fluorophenyl)(phenyl)methyl]-4-fluoro-1-[2-(1-oxo-2,3-dihydro-1H-isoindol-2-yl)acetyl] pyrrolidine-2-carboxamide]
21 | > 100000 nM | 72 nM | 1600 nM | O=C(N[C@@H](c1ccccc1)c1ccc(C2CC2)c(F)c1)[C@@H]1C[C@@H](F)CN1C(=O)CN1C(=O)Cc2ccccc21 [Compound 454, (2S,4R)-N-[(S)-(4-cyclopropyl-3-fluorophenyl)(phenyl)methyl]-4-fluoro-1-[2-(2-oxo-2,3-dihydro-1H-indol-1-yl)acetyl]pyrrolidine-2-carboxamide]
